# In patent publication US10758534B2 (Vertex Pharmaceuticals Incorporated, priority 2014, dated 2020):
# Biological target: T1, F508del (Homo sapiens, UniProt P13569, DEL508-508)
# T1 construct: expressed in transfected cells
# Assay: Protocol 2: FRET membrane potential optical assay (VIPR), identification of correction compounds
# Format: cell-based
# Settings: Table 3; compounds of Table 1 as modulators of CFTR activity; protocol not stated
# Procedure, shortened: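 Correction of the F508del trafficking defect is scored as forskolin (10 μM)/genistein (20 μM)-stimulated Cl^− efflux in NIH3T3 mouse fibroblasts after a 16 hr, 37° C. compound exposure. Depolarization was followed optically using voltage-sensing FRET dyes.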
# T1 sequence (P13569 with tags, fused parts or gaps DEL508-508): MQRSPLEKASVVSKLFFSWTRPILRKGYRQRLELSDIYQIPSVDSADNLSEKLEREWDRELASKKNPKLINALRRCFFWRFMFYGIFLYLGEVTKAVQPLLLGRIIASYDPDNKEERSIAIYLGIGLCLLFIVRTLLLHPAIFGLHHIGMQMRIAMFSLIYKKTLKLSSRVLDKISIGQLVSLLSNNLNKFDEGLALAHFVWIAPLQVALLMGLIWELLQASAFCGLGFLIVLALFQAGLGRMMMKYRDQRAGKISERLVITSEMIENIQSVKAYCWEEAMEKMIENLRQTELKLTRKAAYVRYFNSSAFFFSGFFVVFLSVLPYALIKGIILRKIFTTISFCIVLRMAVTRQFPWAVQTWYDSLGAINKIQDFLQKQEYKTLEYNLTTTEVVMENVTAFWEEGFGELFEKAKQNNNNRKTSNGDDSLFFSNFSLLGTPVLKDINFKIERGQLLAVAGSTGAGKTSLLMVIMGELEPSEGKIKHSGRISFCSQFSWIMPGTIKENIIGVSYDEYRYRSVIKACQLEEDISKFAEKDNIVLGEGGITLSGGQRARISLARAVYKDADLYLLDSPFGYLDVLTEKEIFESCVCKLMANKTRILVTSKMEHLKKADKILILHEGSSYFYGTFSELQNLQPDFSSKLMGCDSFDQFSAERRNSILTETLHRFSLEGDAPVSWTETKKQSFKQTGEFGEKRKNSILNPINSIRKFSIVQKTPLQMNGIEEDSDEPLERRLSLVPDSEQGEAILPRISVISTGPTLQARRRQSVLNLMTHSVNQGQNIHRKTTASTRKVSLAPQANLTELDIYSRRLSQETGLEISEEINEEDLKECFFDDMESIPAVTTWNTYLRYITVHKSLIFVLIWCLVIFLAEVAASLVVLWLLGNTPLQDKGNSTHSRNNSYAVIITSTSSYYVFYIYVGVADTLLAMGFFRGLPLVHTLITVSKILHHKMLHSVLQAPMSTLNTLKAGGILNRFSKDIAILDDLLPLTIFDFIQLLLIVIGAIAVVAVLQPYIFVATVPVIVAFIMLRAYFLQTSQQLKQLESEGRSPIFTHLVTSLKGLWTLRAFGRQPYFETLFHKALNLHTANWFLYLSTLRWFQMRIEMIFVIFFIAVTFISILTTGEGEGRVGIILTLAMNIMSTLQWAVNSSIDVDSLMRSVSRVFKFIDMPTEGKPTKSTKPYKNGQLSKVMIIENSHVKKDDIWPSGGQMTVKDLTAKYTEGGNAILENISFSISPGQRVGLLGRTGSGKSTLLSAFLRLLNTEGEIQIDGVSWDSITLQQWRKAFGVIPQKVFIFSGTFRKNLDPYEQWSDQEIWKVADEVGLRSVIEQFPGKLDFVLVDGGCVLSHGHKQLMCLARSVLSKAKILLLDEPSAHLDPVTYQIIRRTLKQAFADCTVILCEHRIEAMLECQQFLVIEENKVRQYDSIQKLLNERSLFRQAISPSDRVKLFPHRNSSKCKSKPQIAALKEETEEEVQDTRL
row,EC30,Compound
1,++ (“++” means between 3 uM and 10 uM),"Cc1cc(C)c(Cn2c(C(=O)NS(=O)(=O)c3cccc(N)c3)c(C)c3ccccc32)c(C)c1 [Compound 118, N-(3-aminophenyl)sulfonyl-3-methyl-1-[(2,4,6-trimethylphenyl)methyl]indole-2-carboxamide]"
2,+++ (“+++” means <3 uM),"Cc1cccc(C)c1Cn1nc(-c2ccc(C(F)F)cc2)cc1C(=O)NS(=O)(=O)c1ccccc1 [Compound 119, N-(benzenesulfonyl)-5-[4-(difluoromethyl)phenyl]-2-[(2,6-dimethylphenyl)methyl]pyrazole-3-carboxamide]"
3,++ (“++” means between 3 uM and 10 uM),"COc1ncccc1-c1cc(C(=O)NS(=O)(=O)c2cccc(N)c2)n(Cc2c(C)cc(C)cc2C)n1 [Compound 122, N-(3-aminophenyl)sulfonyl-5-(2-methoxy-3-pyridyl)-2-[(2,4,6-trimethylphenyl)methyl]pyrazole-3-carboxamide]"
4,+++ (“+++” means <3 uM),"Cc1cc(C)c(Cn2c(C(=O)NS(=O)(=O)c3ccccc3)cc3c(Cl)cccc32)c(C)c1 [Compound 127, N-(benzenesulfonyl)-4-chloro-1-[(2,4,6-trimethylphenyl)methyl]indole-2-carboxamide]"
5,+++ (“+++” means <3 uM),"Cc1cccc(C)c1Cn1nc(-c2ccccc2N(C)C)cc1C(=O)NS(=O)(=O)c1ccccc1 [Compound 128, N-(benzenesulfonyl)-5-[2-(dimethylamino)phenyl]-2-[(2,6-dimethylphenyl)methyl]pyrazole-3-carboxamide]"
6,+++ (“+++” means <3 uM),"Cc1cccc(C)c1Cn1nc(-c2cccc(OC(C)C)c2)cc1C(=O)NS(=O)(=O)c1ccccc1 [Compound 133, N-(benzenesulfonyl)-2-[(2,6-dimethylphenyl)methyl]-5-(3-isopropoxyphenyl)pyrazole-3-carboxamide]"
7,+++ (“+++” means <3 uM),"Cc1cc(C)c(Cn2c(C(=O)NS(=O)(=O)c3ccc(N)cc3)cc3ccccc32)c(C)c1 [Compound 134, N-(4-aminophenyl)sulfonyl-1-[(2,4,6-trimethylphenyl)methyl]indole-2-carboxamide]"
8,+++ (“+++” means <3 uM),"COc1ccc(-c2cc(C(=O)NS(=O)(=O)c3ccccc3)n(Cc3c(C)cccc3C)n2)c(OC)c1 [Compound 135, N-(benzenesulfonyl)-5-(2,4-dimethoxyphenyl)-2-[(2,6-dimethylphenyl)methyl]pyrazole-3-carboxamide]"
9,+++ (“+++” means <3 uM),"Cc1cc(C)c(Cn2c(C(=O)NS(=O)(=O)c3ccccc3)cc3cc(Cl)ccc32)c(C)c1 [Compound 137, N-(benzenesulfonyl)-5-chloro-1-[(2,4,6-trimethylphenyl)methyl]indole-2-carboxamide]"
10,++ (“++” means between 3 uM and 10 uM),"C[C@@H](c1ccccc1)n1nc(C(C)(C)C)cc1C(=O)NS(=O)(=O)c1cccc(N)c1 [Compound 138, N-(3-aminophenyl)sulfonyl-5-tert-butyl-2-[(1S)-1-phenylethyl]pyrazole-3-carboxamide]"

# Second part, the compound before the results:
row,Compound,EC30
1,"COc1cccc2c1cc(C(=O)NS(=O)(=O)c1cccc(N)c1)n2Cc1c(C)cc(C)cc1C [Compound 120, N-(3-aminophenyl)sulfonyl-4-methoxy-1-[(2,4,6-trimethylphenyl)methyl]indole-2-carboxamide]",+++ (“+++” means <3 uM)
2,"Cc1cc(C)c(CN2Cc3ccccc3C2C(=O)NS(=O)(=O)c2ccc(N)cc2)c(C)c1 (stereo not drawn) [Compound 121, N-(4-aminophenyl)sulfonyl-2-[(2,4,6-trimethylphenyl)methyl]isoindoline-1-carboxamide]",++ (“++” means between 3 uM and 10 uM)
3,"Cc1cc(C)c(Cn2nc(C(C)(C)C)cc2C(=O)NS(=O)(=O)c2cccc(N)c2C)c(C)c1 [Compound 123, N-(3-amino-2-methyl-phenyl)sulfonyl-5-tert-butyl-2-[(2,4,6-trimethylphenyl)methyl]pyrazole-3-carboxamide]",+++ (“+++” means <3 uM)
4,"Cc1cc(C)c(Oc2nc(C)c(C#N)cc2C(=O)NS(=O)(=O)c2cccc(N)c2)c(C)c1 [Compound 124, N-(3-aminophenyl)sulfonyl-5-cyano-6-methyl-2-(2,4,6-trimethylphenoxy)pyridine-3-carboxamide]",++ (“++” means between 3 uM and 10 uM)
5,"Cc1cc(C)c(Oc2nc(-c3cccc(OCC(C)C)c3)ccc2C(=O)NS(=O)(=O)c2ccc[nH]c2=O)c(C)c1 [Compound 125, 6-(3-isobutoxyphenyl)-N-[(2-oxo-1H-pyridin-3-yl)sulfonyl]-2-(2,4,6-trimethylphenoxy)pyridine-3-carboxamide]",++ (“++” means between 3 uM and 10 uM)
6,"Cc1cc(C)c(CN2Cc3ccccc3[C@H]2C(=O)NS(=O)(=O)c2cccc(N)c2)c(C)c1 [Compound 126, (1S)—N-(3-aminophenyl)sulfonyl-2-[(2,4,6-trimethylphenyl)methyl]isoindoline-1-carboxamide]",+++ (“+++” means <3 uM)
7,"CC(C)(C)c1ccc(C(=O)NS(=O)(=O)c2cccc(N)c2)c(-c2ccc(C(F)(F)F)cc2)n1 [Compound 129, N-(3-aminophenyl)sulfonyl-6-tert-butyl-2-[4-(trifluoromethyl)phenyl]pyridine-3-carboxamide]",++ (“++” means between 3 uM and 10 uM)
8,"CC(C)(C)c1ccc(C(=O)NS(=O)(=O)c2ccccc2)c(OCc2ccccc2)n1 [Compound 130, N-(benzenesulfonyl)-2-benzyloxy-6-tert-butyl-pyridine-3-carboxamide]",+++ (“+++” means <3 uM)
9,"Cc1cc(C)c(Oc2nc(C(C)(C)C)ccc2C(=O)NS(=O)(=O)c2ccccc2O)c(C)c1 [Compound 131, 6-tert-butyl-N-(2-hydroxyphenyl)sulfonyl-2-(2,4,6-trimethylphenoxy)pyridine-3-carboxamide]",+++ (“+++” means <3 uM)
10,"Cc1cc(C)c(Oc2nc(-c3ccc(C(F)(F)F)nc3)ccc2C(=O)NS(=O)(=O)c2cccc(N)n2)c(C)c1 [Compound 132, N-[(6-amino-2-pyridyl)sulfonyl]-6-[6-(trifluoromethyl)-3-pyridyl]-2-(2,4,6-trimethylphenoxy)pyridine-3-carboxamide]",+++ (“+++” means <3 uM)
11,"Cc1cc(C)c(Oc2nc(-c3ccc(Cl)c(OCC(C)C)c3)ccc2C(=O)NS(=O)(=O)c2ccc[nH]c2=O)c(C)c1 [Compound 136, 6-(4-chloro-3-isobutoxy-phenyl)-N-[(2-oxo-1H-pyridin-3-yl)sulfonyl]-2-(2,4,6-trimethylphenoxy)pyridine-3-carboxamide]",+++ (“+++” means <3 uM)
12,"Cc1cc(C)c(CN2CC(C)(C)c3ccccc3C2C(=O)NS(=O)(=O)c2cccc(N)n2)c(C)c1 (stereo not drawn) [Compound 140, N-[(6-amino-2-pyridyl)sulfonyl]-4,4-dimethyl-2-[(2,4,6-trimethylphenyl)methyl]-1,3-dihydroisoquinoline-1-carboxamide]",+++ (“+++” means <3 uM)
13,"Cc1cc(C)c(Oc2nc(C(C)(C)C)cnc2C(=O)NS(=O)(=O)c2cccc(N)c2)c(C)c1 [Compound 141, N-(3-aminophenyl)sulfonyl-5-tert-butyl-3-(2,4,6-trimethylphenoxy)pyrazine-2-carboxamide]",+++ (“+++” means <3 uM)
14,"Cc1cc(C)c(Cn2c(C(=O)NS(=O)(=O)c3cccc(N)c3)cc3ccc(F)cc32)c(C)c1 [Compound 142, N-(3-aminophenyl)sulfonyl-6-fluoro-1-[(2,4,6-trimethylphenyl)methyl]indole-2-carboxamide]",+++ (“+++” means <3 uM)
